Source: PMC4770093, “The role of kinetic context in apparent biased agonism at GPCRs” (Nature Communications, 2016)
Where “and” joins values, the source holds several entries; their conditions need not be identical. Equal values may be shown once.

What was measured:
D2LR [1] = target: T1, D2LR (Homo sapiens, UniProt P14416); test: GαoB G protein activation (BRET); format: cell-based; parameters: expressed in transfected cells; settings: for Emax Gao: relative to the maximal response of ropinirole;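 as to all read-outs here: Flp-In-CHO cells stably expressing D2LR, transiently transfected, agonist-stimulated in HBSS at 37 °C, net BRET read after coelenterazine, vehicle control subtracted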
Method: G protein activation. Flp-In-CHO cells stably expressing the D2LR were seeded at a density of 2,000,000 cells per 10-cm dish and were transfected the following day using polyethylenimine as the transfection reagent. […] Twenty-four hours after transfection, the cells were plated into 96-well CulturPlates (PerkinElmer) and grown overnight. The cells were equilibrated in Hank's balanced salt solution at 37 °C before starting the experiment. The cells were stimulated with the agonists for the indicated timeframes when the BRET readings were captured. Coelenterazine (Promega) was added at a final concentration of 5 μM at least 3 min before measurement. […] Net BRET was determined by subtraction of the vehicle control from the agonist-induced response.

D2LR [2] = target: T1, D2LR; test: Quantification of biased agonism between pathways (operational model, LogBias); format: cell-based; parameters: expressed in transfected cells
Text: where Top and Bottom represent the maximal and minimal asymptote of the dose–response curve, [A] is the molar concentration of agonist and EC50 is the molar concentration of agonist required to give a response half way between bottom and top. Dose–response data were fitted to the following form of the operational model of agonism[12] to allow the quantification of biased agonism
where Em is the maximal possible response of the system, Basal is the basal level of response, KA represents the equilibrium dissociation constant of the agonist (A) and τ is an index of the signalling efficacy of the agonist that is defined as RT/KE, where RT is the total number of receptors and KE is the coupling efficiency of each agonist-occupied receptor, and n is the slope of the transducer function that links occupancy to response. The analysis assumes that the transduction machinery used for a given cellular pathway are the same for all agonists, such that the Em and transducer slope (n) are shared between agonists. Data for all compounds for each pathway were fit globally, to determine values of KA and τ. Biased agonism was quantified as previously described. […] The relative bias can then be calculated for each agonist at the two different signalling pathways by subtracting the Δlog(τ/KA) of one pathway from the other to give a ΔΔlog(τ/KA) value, which is a measure of bias. […] All affinity (pKi or pKA), potency (pEC50) and transduction ratio (log(τ/KA)) parameters were estimated as logarithms. When fold changes in bias are described, this was calculated by converting values of ΔΔlog(τ/KA) to the corresponding antilog value. […] Thus, as the application of t-tests and analyses of variance assume Gaussian distribution, estimating the parameters as logarithms allows valid statistical comparison. All results are expressed as the mean±s.e.m. As such, we performed a Brown–Forsythe test (Graphpad prism 6) to assure ourselves of equal variance when such parameters are compared.

D2LR [3] = target: T1, D2LR; test: Inhibition of forskolin-induced cAMP production (BRET CAMYEL biosensor); settings: for Emax cAMP: relative to the maximal response of ropinirole; for Inhibition of cAMP production measured using a CAMYEL BRET biosensor, Net BRET: single experiments n = 1, 2, 3
Method: Flp-In-CHO cells stably expressing the D2LR were seeded at a density of 2,000,000 cells per 10-cm dish and were transfected the following day using polyethylenimine as the transfection reagent. The cells were transfected with 3 μg CAMYEL, to allow the detection of cAMP levels within the cells. Twenty-four hours after transfection, the cells were plated into 96-well CulturPlates (PerkinElmer) and grown overnight. The cells were equilibrated in Hank's balanced salt solution at 37 °C (or 25 °C when indicated) before starting the experiment. The cells were co-stimulated with the agonists and 10 μM forskolin for the indicated timeframes when the BRET readings were captured. Coelenterazine (Promega) was added at a final concentration of 5 μM at least 3 min before measurement. […] Net BRET was determined by subtraction of the vehicle control co-added with 10 μM forskolin.

[4] = 5 minute timepoint, Flp-In-CHO-D2LR
[5] = 5 minute timepoint, dopamine as reference agonist

T1 sequence (P14416 whole entry): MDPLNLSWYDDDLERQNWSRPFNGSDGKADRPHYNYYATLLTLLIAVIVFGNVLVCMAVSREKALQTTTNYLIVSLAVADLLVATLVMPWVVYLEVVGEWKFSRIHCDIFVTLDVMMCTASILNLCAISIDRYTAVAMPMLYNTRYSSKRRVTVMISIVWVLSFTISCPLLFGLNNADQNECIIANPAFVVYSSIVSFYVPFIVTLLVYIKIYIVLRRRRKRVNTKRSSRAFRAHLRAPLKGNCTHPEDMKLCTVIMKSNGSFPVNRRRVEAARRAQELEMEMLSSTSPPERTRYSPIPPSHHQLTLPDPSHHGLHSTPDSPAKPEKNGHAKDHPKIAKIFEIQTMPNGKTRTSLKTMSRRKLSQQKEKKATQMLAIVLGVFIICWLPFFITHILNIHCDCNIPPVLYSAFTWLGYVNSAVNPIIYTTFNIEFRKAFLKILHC

CCCN1CCC[C@@H](c2cccc(O)c2)C1 [S-3PPP, (S)-(-)-3-(3-hydroxyphenyl)-N-propylpiperidine]
Emax Gao (D2LR [1]; 2 min): 64 ± 5.6
Emax Gao (D2LR [1]; 5 min): 68 ± 3.0
Log(τ/KA) GαoB activation (D2LR [1]; [4]): 6.40 ± 0.11
ΔLog(τ/KA) GαoB activation (D2LR [1]; [5]): -0.84 ± 0.14
Emax Gao (D2LR [1]; 10 min): 73 ±3.1
Emax Gao (D2LR [1]; 15 min): 76 ± 2.2
Emax Gao (D2LR [1]; 30 min): 74 ± 3.0
Emax Gao (D2LR [1]; 45 min): 72 ± 2.2
Emax Gao (D2LR [1]; 60 min): 72 ± 2.3
Emax Gao (D2LR [1]; 90 min): 77 ± 2.6
change in potency over time in the GαoB activation assay (D2LR [1]; time points from 2 to 90 min): twofold
bias between the activation of Gαi1 and all other assays apart from the activation of GαoB (D2LR [2]; 5 min, reference dopamine): less than tenfold
LogBias Gαi1 – CI (D2LR [2]; [5]): 0.64 ± 0.19
LogBias Gαi1 – GαoB (D2LR [2]; [5]): 0.27 ± 0.21
LogBias Gαi1 – cAMP (D2LR [2]; [5]): 0.83 ± 0.17
LogBias GαoB – CI (D2LR [2]; [5]): 0.37 ± 0.18
LogBias GαoB – cAMP (D2LR [2]; [5]): 0.56 ± 0.16
LogBias cAMP – CI (D2LR [2]; [5]): -0.19 ± 0.13
Emax cAMP (D2LR [3]; 2 min): 73 ± 1.9
Emax cAMP (D2LR [3]; 5 min): 73 ± 2.0
Log(τ/KA) cAMP (D2LR [3]; [4]): 6.65 ± 0.06
ΔLog(τ/KA) cAMP (D2LR [3]; [5]): -1.40 ± 0.08
Emax cAMP (D2LR [3]; 10 min): 70 ± 1.7
Emax cAMP (D2LR [3]; 15 min): 70 ± 1.9
Emax cAMP (D2LR [3]; 30 min): 71 ± 2.5
Emax cAMP (D2LR [3]; 45 min): 64 ± 1.4
Emax cAMP (D2LR [3]; 60 min): 53 ± 2.4
Emax cAMP (D2LR [3]; 75 min): 66 ± 1.4
Emax cAMP (D2LR [3]; 90 min): 60 ± 0.8
Inhibition of cAMP production measured using a CAMYEL BRET biosensor, Net BRET (D2LR [3]; time 2.21667 mins): 0.05465 and 0.08466 and 0.07325
Inhibition of cAMP production measured using a CAMYEL BRET biosensor, Net BRET (D2LR [3]; time 2.58333 mins): 0.05879 and 0.0813 and 0.07011
Inhibition of cAMP production measured using a CAMYEL BRET biosensor, Net BRET (D2LR [3]; time 2.95 mins): 0.05876 and 0.09107 and 0.0617
Inhibition of cAMP production measured using a CAMYEL BRET biosensor, Net BRET (D2LR [3]; time 3.31667 mins): 0.05926 and 0.0872 and 0.07317
Inhibition of cAMP production measured using a CAMYEL BRET biosensor, Net BRET (D2LR [3]; time 3.68333 mins): 0.06005 and 0.08327 and 0.07534
Inhibition of cAMP production measured using a CAMYEL BRET biosensor, Net BRET (D2LR [3]; time 4.05 mins): 0.08108 and 0.08891 and 0.07666
Inhibition of cAMP production measured using a CAMYEL BRET biosensor, Net BRET (D2LR [3]; time 4.41667 mins): 0.07291 and 0.08859 and 0.07671
Inhibition of cAMP production measured using a CAMYEL BRET biosensor, Net BRET (D2LR [3]; time 4.78333 mins): 0.08207 and 0.09068 and 0.07598
Inhibition of cAMP production measured using a CAMYEL BRET biosensor, Net BRET (D2LR [3]; time 5.15 mins): 0.088 and 0.08877 and 0.07517
Inhibition of cAMP production measured using a CAMYEL BRET biosensor, Net BRET (D2LR [3]; time 5.51667 mins): 0.08023 and 0.0868 and 0.07779
Inhibition of cAMP production measured using a CAMYEL BRET biosensor, Net BRET (D2LR [3]; time 5.88333 mins): 0.08241 and 0.08562 and 0.08229
Inhibition of cAMP production measured using a CAMYEL BRET biosensor, Net BRET (D2LR [3]; time 6.25 mins): 0.0777 and 0.08078 and 0.07833
Inhibition of cAMP production measured using a CAMYEL BRET biosensor, Net BRET (D2LR [3]; time 6.61667 mins): 0.07786 and 0.08188 and 0.07763
Inhibition of cAMP production measured using a CAMYEL BRET biosensor, Net BRET (D2LR [3]; time 6.98333 mins): 0.08463 and 0.08155 and 0.08058
Inhibition of cAMP production measured using a CAMYEL BRET biosensor, Net BRET (D2LR [3]; time 7.35 mins): 0.08243 and 0.07743 and 0.07354
Inhibition of cAMP production measured using a CAMYEL BRET biosensor, Net BRET (D2LR [3]; time 7.71667 mins): 0.08152 and 0.0852 and 0.08224
Inhibition of cAMP production measured using a CAMYEL BRET biosensor, Net BRET (D2LR [3]; time 8.08333 mins): 0.08811 and 0.08583 and 0.07638
Inhibition of cAMP production measured using a CAMYEL BRET biosensor, Net BRET (D2LR [3]; time 8.45 mins): 0.08386 and 0.08753 and 0.07171
Inhibition of cAMP production measured using a CAMYEL BRET biosensor, Net BRET (D2LR [3]; time 8.81667 mins): 0.09076 and 0.08128 and 0.08398
Inhibition of cAMP production measured using a CAMYEL BRET biosensor, Net BRET (D2LR [3]; time 9.18333 mins): 0.08865 and 0.08603 and 0.07348
Inhibition of cAMP production measured using a CAMYEL BRET biosensor, Net BRET (D2LR [3]; time 9.55 mins): 0.08292 and 0.0837 and 0.08159
Inhibition of cAMP production measured using a CAMYEL BRET biosensor, Net BRET (D2LR [3]; time 9.91667 mins): 0.09198 and 0.07873 and 0.08223
Inhibition of cAMP production measured using a CAMYEL BRET biosensor, Net BRET (D2LR [3]; time 10.2833 mins): 0.08942 and 0.08142 and 0.08126
Inhibition of cAMP production measured using a CAMYEL BRET biosensor, Net BRET (D2LR [3]; time 10.65 mins): 0.09447 and 0.08477 and 0.08651
Inhibition of cAMP production measured using a CAMYEL BRET biosensor, Net BRET (D2LR [3]; time 11.0167 mins): 0.09406 and 0.0745 and 0.08653
Inhibition of cAMP production measured using a CAMYEL BRET biosensor, Net BRET (D2LR [3]; time 11.3833 mins): 0.09952 and 0.0798 and 0.08963
Inhibition of cAMP production measured using a CAMYEL BRET biosensor, Net BRET (D2LR [3]; time 11.75 mins): 0.09797 and 0.09183 and 0.0831
Inhibition of cAMP production measured using a CAMYEL BRET biosensor, Net BRET (D2LR [3]; time 12.1167 mins): 0.0995 and 0.08775 and 0.0921
Inhibition of cAMP production measured using a CAMYEL BRET biosensor, Net BRET (D2LR [3]; time 12.4833 mins): 0.08767 and 0.08489 and 0.09746
Inhibition of cAMP production measured using a CAMYEL BRET biosensor, Net BRET (D2LR [3]; time 12.85 mins): 0.09546 and 0.09264 and 0.08756
Inhibition of cAMP production measured using a CAMYEL BRET biosensor, Net BRET (D2LR [3]; time 13.2167 mins): 0.09597 and 0.0888 and 0.1009
Inhibition of cAMP production measured using a CAMYEL BRET biosensor, Net BRET (D2LR [3]; time 13.5833 mins): 0.09698 and 0.09198 and 0.09379
Inhibition of cAMP production measured using a CAMYEL BRET biosensor, Net BRET (D2LR [3]; time 13.95 mins): 0.09269 and 0.09222 and 0.0998
Inhibition of cAMP production measured using a CAMYEL BRET biosensor, Net BRET (D2LR [3]; time 14.3167 mins): 0.1016
